Reference: patent publication US11534434B2 (Karuna Therapeutics, Inc., priority 2019, dated 2022)

Assays:
[1] = Storage stability of the tartrate salt (reanalysis by LC-MS, 1H NMR, 19F NMR); assay type: physicochemical; conditions: six months of storage at 0° C.; LC-MS, 1H NMR, 19F NMR
Experimental: The tartrate salt of the title compound was unstable at test storage conditions. Although the initial NMR spectra were clean, the LCMS purity was about 75%. After storage at 0° C. for six months, the sample was reanalyzed by ^1H-NMR, ^19F-NMR, and LC-MS.

[2] = target: T1, human M1 mAChR (Homo sapiens, UniProt P11229); experiment: Whole-cell functional agonist activity, FLIPR Ca2+ release, U2OS-based human M1 mAChR stable cell line; conditions: for EC50: agonist, FLIPR Ca2+ release, U2OS human M1 cells; for Emax: top of curve, % activity vs MAX control ligand, FLIPR Ca2+
T1 construct: expressed in transfected cells
T1 sequence (P11229 1-460): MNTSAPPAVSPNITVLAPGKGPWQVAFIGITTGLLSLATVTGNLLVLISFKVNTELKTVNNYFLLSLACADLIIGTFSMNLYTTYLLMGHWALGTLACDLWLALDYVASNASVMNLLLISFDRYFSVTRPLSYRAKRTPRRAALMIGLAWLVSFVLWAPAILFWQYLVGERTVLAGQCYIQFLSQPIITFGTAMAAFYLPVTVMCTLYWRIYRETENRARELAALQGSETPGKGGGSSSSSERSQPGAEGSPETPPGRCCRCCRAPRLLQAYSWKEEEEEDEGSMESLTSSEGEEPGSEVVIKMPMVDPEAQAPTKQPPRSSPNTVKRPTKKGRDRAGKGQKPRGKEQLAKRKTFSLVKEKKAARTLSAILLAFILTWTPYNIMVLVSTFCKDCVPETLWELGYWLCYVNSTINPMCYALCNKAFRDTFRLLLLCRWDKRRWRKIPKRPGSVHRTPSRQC
Excerpt: (§1) Whole-cell functional agonist activity in cells expressing recombinant human muscarinic receptor subtypes.
(§2) ThermoFisher's FLIPR™ (Fluorescence Imaging Plate Reader) was used to quantify Ca^2+ release, a functional effect associated with Gaq-coupled M1 and M5 mAChRs. CisBio's phospho-ERK (pERK) Thr202/Tyr204 was used to evaluate Gai/o-coupled M2 and M4 mAChRs responses.
(§3) One day before the assay, M1, M3, and M5 cells were thawed out and plated at 10,000 cells/well into black-walled, clear-bottom, Poly-D-lysine coated 384-well microplates and incubated at 37° C. and 5% CO2 in MEME+10% FBS+1× penicillin/streptomycin/glutamine, for the M1 and M3 cell lines and F-12+10% FBS+1× penicillin/streptomycin/glutamine for the M5 cell line. […] The M1 and M5 responses were analyzed using the CBIS data analysis suite (ChemInnovation, CA).
(§4) Percentage activity was calculated using the following formula: % Activity=100%×(mean RFU of test sample mean RFU of vehicle control)/(mean MAX RFU control ligand mean RFU of vehicle control) where RFU is relative fluorescence unit. The M2 and the M4 cells were thawed out one day before the assay and plated at 2,000 and 1,000 cells per well, respectively, in […] of DMEM/F12+10% FBS in ProxiPlate 384-well white-walled, white-bottom tissue culture-treated plates and incubated at 37° C. and 5% CO2 overnight. Before the assay, cells were serum-starved at 37° C. in 5% CO2 for 4 hours by replacing culture media with […] of F12 media with 8 mM HEPES. The pERK assay was run according to assay kit instructions with minor volume modifications outlined below.

[3] = target: T2, human M5 mAChR (Homo sapiens, UniProt P08912); experiment: Whole-cell functional agonist activity, FLIPR Ca2+ release, CHOK1-based human M5 mAChR stable cell line; conditions: for EC50: agonist, FLIPR Ca2+ release, CHOK1 human M5 cells; for Emax: top of curve, % activity vs MAX control ligand, FLIPR Ca2+
T2 construct: expressed in transfected cells
T2 sequence (P08912 1-532): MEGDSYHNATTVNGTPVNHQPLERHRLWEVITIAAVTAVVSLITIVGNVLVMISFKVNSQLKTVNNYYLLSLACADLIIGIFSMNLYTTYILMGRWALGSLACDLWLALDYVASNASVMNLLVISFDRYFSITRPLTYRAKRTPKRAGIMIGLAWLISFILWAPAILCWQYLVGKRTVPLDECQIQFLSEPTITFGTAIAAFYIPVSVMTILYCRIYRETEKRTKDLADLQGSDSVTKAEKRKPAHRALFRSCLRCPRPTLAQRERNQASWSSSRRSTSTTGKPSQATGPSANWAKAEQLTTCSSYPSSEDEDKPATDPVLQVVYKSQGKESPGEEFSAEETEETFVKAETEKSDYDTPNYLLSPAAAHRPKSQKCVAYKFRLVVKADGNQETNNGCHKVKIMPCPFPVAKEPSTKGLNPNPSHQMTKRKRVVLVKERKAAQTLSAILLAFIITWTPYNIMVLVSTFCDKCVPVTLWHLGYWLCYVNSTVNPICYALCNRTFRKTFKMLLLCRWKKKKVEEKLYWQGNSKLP
Excerpt: as §1, §2, §3, §4

| storage stability of tartrate salt [1] | EC50 [2] [nM] | Emax [2] [%] | EC50 [3] [nM] | Emax [3] [%] | SMILES |
| --- | --- | --- | --- | --- | --- |
| no meaningful changes were observed | 3.7 | 90 | 22.4 | 85 | CN1CCC=C(c2nsnc2OCCCCCC(F)(F)F)C1 [Example 1, 3-(1-Methyl-1,2,5,6-tetrahydropyridin-3-yl)-4-((6,6,6-trifluorohexyl)oxy)-1,2,5-thiadiazole] |
|  | 2.5 | 94 | 14.7 | 95 | CN1CCC=C(c2nsnc2OCCCCCC(F)F)C1 [Example 6, 3-((6,6-difluorohexyl)oxy)-4-(1-methyl-1,2,5,6-tetrahydropyridin-3-yl)-1,2,5-thiadiazole] |
|  | 3.1 | 93 | 13.2 | 90 | CN1CCC=C(c2nsnc2OCCCCCCF)C1 [Example 7, 3-((6-Fluorohexyl)oxy)-4-(1-methyl-1,2,5,6-tetrahydropyridin-3-yl)-1,2,5-thiadiazole] |
|  | 5.7 | 87 | 27.2 | 85 | CN1CCC=C(c2nsnc2OCCCCC(C)(F)F)C1 [Example 8, 3-((5,5-Difluorohexyl)oxy)-4-(1-methyl-1,2,5,6-tetrahydropyridin-3-yl)-1,2,5-thiadiazole] |
|  | 28.4 | 46 | 140 | 40 | CCC(F)(F)CCCOc1nsnc1C1=CCCN(C)C1 [Example 9, 3-((4,4-Difluorohexyl)oxy)-4-(1-methyl-1,2,5,6-tetrahydropyridin-3-yl)-1,2,5-thiadiazole] |
|  | 29 | 32 | 2290 | 45 | CCCCC(F)(F)COc1nsnc1C1=CCCN(C)C1 [Example 11, 3-((2,2-Difluorohexyl)oxy)-4-(1-methyl-1,2,5,6-tetrahydropyridin-3-yl)-1,2,5-thiadiazole] |
